Source: PMC5122889, “Sigma-1 Receptor Agonism Promotes Mechanical Allodynia After Priming the Nociceptive System with Capsaicin” (Scientific Reports, 2016)
Structures can show the parent of a compound that is named as a salt. Where two headings read alike, the source gives them in different places.

How the values were obtained:
[1] = molecular target: T1, sigma-1 receptor (Mus musculus, UniProt O55242); assay: [3H](+)-pentazocine competition radioligand binding in mouse brain membranes
T1 construct: gene Sigmar1; native receptor in wild-type mouse brain crude synaptosomal membranes (P2 fraction)
T1 sequence (O55242 whole entry): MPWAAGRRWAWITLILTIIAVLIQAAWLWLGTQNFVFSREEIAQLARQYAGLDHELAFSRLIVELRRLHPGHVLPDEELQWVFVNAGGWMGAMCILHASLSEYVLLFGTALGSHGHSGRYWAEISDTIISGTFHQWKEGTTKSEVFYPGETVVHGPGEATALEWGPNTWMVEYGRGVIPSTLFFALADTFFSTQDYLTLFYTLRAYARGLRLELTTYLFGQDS

[2] = in vitro; design: metabolic stability in mouse liver microsomes with NADPH-regenerating system, parent compound by UHPLC-MS/MS; conditions: mouse liver microsomes
Description: (§1) Incubation of the test compounds in mouse or human liver microsomes (Xenotech, Lenexa, KS, USA) was done with a previously described method[55] with modifications. We tested the metabolic stability of PRE-084 and PGB, the latter of which was used as a control because of its poor hepatic metabolism. Briefly, the drugs were incubated in 96-well plates at a concentration of 1 μM and at 37 °C during 1 h under standard incubation conditions: sodium-potassium phosphate buffer (50 mM, pH 7.4), MgCl2 (3 mM), the NADPH-regenerating system and cytochrome P450 content (0.3 nmol/mL). Aliquots of the reaction mixture were obtained at 0, 10, 20, 40 and 60 min with an equal volume of cold acetonitrile. The assay was done in a robotic [compound left out] handling system (Freedom Evo Tecan, Männedorf, Switzerland). Upon centrifugation of the resulting mixture, supernatants were analyzed with a generic ultra-high performance [compound left out] chromatography–tandem mass spectrometry method. For the in vitro metabolic stability in liver microsomes, Ln-linear plots of the percentage of compound remaining based on chromatographic peak area versus time were generated, and the slope was calculated by linear fitting of the curve. The in vitro metabolic t1/2 was estimated with the equation 0.693/k where k is the biotransformation rate constant and corresponds to the slope of the ln-linear curve. Liver microsome Cl int was calculated with the equation [drawing 1]

[3] = in vitro; design: metabolic stability in human liver microsomes with NADPH-regenerating system, parent compound by UHPLC-MS/MS; conditions: human liver microsomes
Description: as §1

[4] = in vitro; design: metabolic stability in liver microsomes with NADPH, UHPLC-MS/MS quantitation of parent compound; conditions: for remaining at 1 h, 1 µM: pH 7.4, liver microsomes, read-out: % parent compound remaining at 1 h; for half-life at 1 µM / microsomal CLint at 1 µM: pH 7.4, liver microsomes; for microsomal CLint at 1 µM: read-out: Cl int (µL/min/mg protein)
Description: as §1

Structure (SMILES)	IC50 [1]	remaining at 1 h, 1 µM ([2]; pH 7.4, liver microsomes, read-out: % parent compound remaining at 1 h (mouse))	microsomal CLint at 1 µM ([2]; pH 7.4, liver microsomes, read-out: Cl int (mouse))	half-life at 1 µM ([2]; pH 7.4, liver microsomes, read-out: t1/2 (mouse))	remaining at 1 h, 1 µM ([3]; pH 7.4, liver microsomes, read-out: % parent compound remaining at 1 h (human))	microsomal CLint at 1 µM ([3]; pH 7.4, liver microsomes, read-out: Cl int (human))	half-life at 1 µM ([3]; pH 7.4, liver microsomes, read-out: t1/2 (human))	remaining at 1 h, 1 µM ([4]; human liver microsomes)	remaining at 1 h, 1 µM ([4]; mouse liver microsomes)	half-life at 1 µM ([4]; human liver microsomes)	microsomal CLint at 1 µM ([4]; human liver microsomes)	half-life at 1 µM ([4]; mouse liver microsomes)	microsomal CLint at 1 µM ([4]; mouse liver microsomes)
O=C(OCCN1CCOCC1)C1(c2ccccc2)CCCCC1 [PRE, 2-(4-morpholinethyl)1-phenylcyclohexanecarboxylate) hydrochloride]	188 ± 18.8 nM	0%	949 ± 203 µL/min/mg	3 ± 0.67 min	4 ± 0.58%	103 ± 5 µL/min/mg	0.217 ± 0.00967 h	–	–	–	–	–	–
CC(C)C[C@H](CN)CC(=O)O [Pregabalin]	–	–	–	–	–	–	–	95 ± 2.96%	97 ± 2.67%	17.9 ± 10.8 h	2.3 ± 0.94 µL/min/mg	10 ± 3.03 h	4.5 ± 1.2 µL/min/mg
